{
  "source": "paper PMC10044725",
  "about": "“Antioxidant, Anti-Inflammatory and Anti-Diabetic Activities of Tectona grandis Methanolic Extracts, Fractions, and Isolated Compounds” (Antioxidants, 2023)",
  "key": {"[1]": {"assay": "Ferric reducing antioxidant power (FRAP) assay", "conditions": "compounds at 50 μM; Trolox equivalent", "procedure": "The FRAP assay was determined in accordance with the instructions for the FRAP kit. The total antioxidant activity values were estimated using the Trolox equivalent antioxidant capacity test. Initially, the detection concentration of methanolic extract and different fractions was 80 μg/mL, and the detection concentration of compounds (1–23) was 50 μM. Then, 190 μL of FRAP working reagent was mixed with 10 μL sample and incubated at room temperature for 20 min. The absorbance was then measured using a microplate reader at 593 nm, and the scavenging activity was calculated according to Equation (3). The blank control group used DMSO to replace the sample. […] The analysis was performed in triplicates, 0.8054, 0.0134 was a constant."}, "3T3-L1 adipocytes": {"tested_on": "3T3-L1 adipocytes", "assay": "Glucose uptake assay in 3T3-L1 adipocytes", "format": "cell-based, mouse", "conditions": "compounds at 40 µM, 48 h (Figure 11A(b))", "procedure": "Mouse 3T3-L1 preadipocyte cells were maintained in DMEM supplemented with 10% NBCS and 1% P/S at 37 °C in a humidified environment with 5% CO2, and then began starvation when the cells grew to 80% confluence (day 0). To facilitate differentiation to adipocytes, 2-days post-confluent cells were placed in 10% FBS DMEM supplemented with 1% P/S, 0.5 mM IBMX, 1 μM Dex, 1 μM Rosi and 100 nM insulin (day 2). For another three days (day 5), the medium was changed to high glucose DMEM containing 10% FBS, 1% P/S and 100 nM insulin for one day (day 6), and the 3T3-L1 preadipocytes were fully differentiated into mature adipocytes.\nNext, differentiated 3T3-L1 adipocytes at a density of 5 × 10^4 cells/well were cultured with DMEM in 96-well plates and divided into the blank control group, model group, insulin group (100 ng/mL), berberine group (10 μg/mL) and compound groups (40 μM). […] After 24 and 48 h of culture, glucose uptake was initiated by the addition of […] medium and 190 μL glucose detection reagent to each well, reaction at 37 °C for 15 min, and the glucose uptake was measured according to the operating instructions of the glucose content determination kit. Following the glucose uptake test, cell viability was detected by CellTiter96® Aqueous One Solution Cell Proliferation Assay. […] Absorbance was measured at 490 nm and relative cell viability was calculated according to Equation (7). […]"}},
  "note": "Marks after values point to notes of the source that are not given here.",
  "data": [
    {"smiles": "O=C(O)c1cc(O)c(O)c(O)c1", "note": "[Compound 23, gallic acid]", "values": [
      {"measurement": "FRAP Assay", "setting": "[1]", "value": "1.03 ± 0.01 ^a mmol Trolox/L"},
      {"measurement": "effect on glucose uptake", "setting": "3T3-L1 adipocytes", "value": "significantly promote"}
    ]}
  ]
}
